The source of these data is patent US20120322060A1, “DIAGNOSIS AND MONITORING TREATMENT OF PSYCHIATRIC DISEASES WITH SPADIN AND RELATED METHODS” (CENTRE NATIONAL DE LE RECHERCHE SCIENTIFIQUE - CNRS -, priority 2011, published 2012).

For one assay, the system named is DRN 5-HT neurons. The assay can be described thus: Extracellular unitary recordings of DRN 5-HT neurons in mice. It counts as in vivo, mouse. To be noted: 10^-5 M in 100 μl bolus i.p. As to the method: As previously described, single-barreled glass micropipettes (recording electrodes) were filled with a 2 M NaCl solution saturated with Fast Green FCF, resulting in an impedance of 2-5 MΩ. Mice were anaesthetized with chloral hydrate (400 mg/kg, i.p., using a 2% solution), and placed in a stereotaxic frame equipped with the Stoelting “just for mouse” adaptor. Electrodes were positioned 0.5-1 mm posterior to the interaural line on the midline, and were then lowered into the DRN, usually attained at a depth of 2.5 mm from the brain surface. 5-HT neurons were then encountered over a maximal distance of 1 mm. They were identified using the following criteria: a slow (0.5-2.5 Hz) and regular firing rate and long-duration (0.8-1.2 ms) action potentials, with a positive-negative spike. Spikes were computed by using the Spike 2 software, so that the firing rate was calculated as the mean number of events occurring within a 10 s period. For each neuron, the discharge was monitored during 60 seconds. Each mouse received either spadin (10^−5 M in a 100 μl bolus) or its vehicle (saline). Starting 30 min after the injection, 3 to 4 successive descents were performed along the DRN, for a total of 4-8 cells recorded per animal. Recordings were performed for a maximal duration of 4 hours post-injection.

Assay [1] concerns mice. The assay can be described thus: Porsolt Forced Swim Test (FST) in mice. It counts as in vivo, mouse. To be noted: for reduced immobility time: acute, 30 min before test. On the procedure: Mice (Janvier, France) were placed individually in cylinders (height: 30 cm, diameter: 15 cm) filled with 12 cm deep water (temperature: 22±1° C.) for 6 min. The total period of immobility was recorded during the last 4 min.

Assay [2] deals with mice. The assay can be described thus: Tail Suspension Test (TST). It counts as in vivo, mouse. On the procedure: Mice were suspended by the tail. […] The immobility time was recorded during a 6 min test session.
Assay [3] relates to mice. The assay can be described thus: Conditioned Suppression of Motility test (CMST). The assay is classed as in vivo, mouse. On the procedure:
Mice were placed in a rectangular cage (20×20×27 cm) with a metallic grid floor, located in a sound-proof room illuminated by a 75 W bulb. There were 12 squares drawn on the floor for counting animal displacements. On the first day, the mouse was left in the test cage for 6 min and received 30 electric footshocks of 1.8 mA during 200 ms (one shock every 12 s.). On the second day, the mouse was again placed in the same cage without receiving electric footshocks (conditioned suppression group). Motility changes were observed by counting the number of squares crossed plus the number of climbing in 6 min. Each control group was treated exactly by the same way, except for the absence of the electric foot-shock. In this test, the mice learned to associate a conditioned stimulus (CS: test chamber) with an unconditioned stimulus (US: footshocks). After the pairing of CS and US, a robust associative memory of the CS-US was formed such that the CS alone could elicit a fear response (behavioral immobility or freezing).

Assay [4] deals with mice. The assay can be described thus: Learned Helplessness (LH) test. To be noted: acute i.v., 10^-6 M, shocked mice. It counts as in vivo, mouse. On the procedure:
LH training was carried out in 2-way shuttle plexiglas boxes (Imetronic). Each box was divided in 2 equal compartments (19.5×10×13 cm) separated by a wall equipped with, a gate (4.7×4.7 cm) that was closed during LH training but opened automatically during shuttle escape testing. LH was induced in shocked group by administering 360 inescapable, 2-s duration footshocks (0.3 mA intensity), administered once every 10 s over a 1-hour session. Scrambled shocks were delivered by a source shock to a grid floor, which was made of stainless steel bars 2 mm in diameter, spaced 4 mm apart. […] 24 hours later, escape testing was performed in the same box, but the animals had the possibility to avoid shocks by moving through the gate to the other side of the box. During testing sessions, all mice were given 30 shuttle escape trials with 30 s intervals between the start of each trial. While on the first five trials, the gate opened at the same time as the shock (0.3 mA), for the 25 remaining trials, the gate opened 2 s after shock onset. Each trial (with a maximal 24 s) duration was terminated when the mouse went into the adjacent compartment. Escape latencies were averaged over 5 trials. Overall escape latencies were computed by averaging escape latencies over 30 trials.

The subject of assay [5] is mice. The assay can be described thus: Staircase test. It counts as in vivo, mouse. To be noted: spadin i.p. 10^-5 M, diazepam i.p. 0.5 mg/kg. As to the method:
The apparatus comprised an enclosed staircase consisted of five identical steps (2.5 cm in height×11 cm in width×7.5 cm in length), each made of black plastic. The height of the walls was constant (12.5 cm above the stairs) along the entire length of the staircase. Each mouse was placed individually on the floor of the staircase with its back to the staircase. A step was considered climbed only if the mouse placed all four paws on it. Rearing was recorded when the mouse rose on its hind legs either on the step or against the wall. The number of steps ascended and the number of rearings made in a 3-min period were recorded. Results were expressed as ratio of rearing/step numbers.

Assay [6] has as its system dentate gyrus of the mouse hippocampus. The assay can be described thus: Hippocampal neurogenesis (BrdU / DCX labeling). The assay is classed as in vivo. As to the method: Twenty-four hours after the injection of BrdU (120 mg per kg of body weight in a 300 μl bolus), mice were euthanized and transcardially perfused with 4% cold paraformaldehyde. Serial sections of the brains were cut (40 μm) throughout the entire hippocampus on a vibratome (Leica). Every sixth section throughout the hippocampus was processed for BrdU or doublecortin (DCX) immunohistochemistry, as previously described. For each immunodetection, slides were first incubated overnight at 4° C. with a mouse monoclonal anti-BrdU antibody (1:200; Becton-Dickinson) or a goat anti-DCX (1:400, Santa Cruz Laboratories). For chromogenic immunodetection, sections were then incubated for 1 hour in biotin-conjugated species-specific secondary antibodies (1:100; Vector Laboratories) followed by a peroxidase-avidin complex solution according to the manufacturer's protocol. The peroxidase activity of immune complexes was visualized with DAB staining using the VectaStain ABC kit (Vector Laboratories). For fluorescent double-labeling, performed to determine the cell phenotype, sections were incubated overnight at 4° C. with anti-sheep BrdU (1:200, Interchim), anti-goat DCX (1:200, Santa Cruz Laboratories), or an anti-GFAP (Glial Fibrillary acidic protein, marker for astrocytes, 1:250, Dako). […] All BrdU-labeled cells in the granular cell layer and subgranular zone (SGZ) were counted in each section (n=10 and 5 mice per group) at 400× and 1000× magnification under a light microscope (Olympus) by an experimenter blinded to the study code. The total number of BrdU-positive cells per section was multiplied by 6 to obtain the total number of cells per dentate gyrus. The counting of BrdU/DCX labeled cells was performed using a Laser Scanning Confocal Microscope (TCS SP, Leica) equipped with a DMIRBE inverted microscope.

[7] abbreviates: subchronic, 4 days, spadin i.v. 10^-6 M, fluoxetine 3 mg/kg.

Where “and” joins values, the source holds several entries; their conditions need not be identical. Equal entries are not always repeated. No end group written: not given here.

Consider APLPRWSGPIGVSWGLR [spadin], for which the “increase of DRN 5-HT neuron firing rate versus vehicle” value with DRN 5-HT neurons turned out to be 146%. In addition, in the assay with DRN 5-HT neurons, the “mean firing rate of DRN 5-HT neurons” value stood at 3.1±0.7 Hz. The reduced immobility time is 66.8% in the assay on mice [1] (i.c.v., 10^-7 M); 55.30% with mice [1] (i.p., 10^-8 M); 62.9% in the assay on mice [1] (i.v., 10^-6 M). Besides, the “reduction of time of immobility” value with mice [1] (chronic, 15 days, spadin 10^-6 M, fluoxetine 1 mg/kg) was “around 30%”. In addition, the “effect in FST” value with mice [1] (injection in kcnk2-/- mice) is “did not induce any change”. The “reduction of time spent immobile” value worked out at 43.2% in the assay with mice [1] (setting [7]) and 28.1% in the assay with mice [2] (setting [7]). The “immobility times versus saline” value in the assay with mice [2] (acute, i.v., 10^-6 M, 30 min before test) is recorded as “significantly reduced immobility times”. The “effect in TST” value in the assay on mice [2] (injection in kcnk2-/- mice) is listed as “did not induce any change”. The “reduction of conditioned suppression of motility” value in the assay on mice [3] (i.v., 10^-6 M) was 84.4%. Also, the “effect in CMST” value in the assay with mice [3] (injection in kcnk2-/- mice) is “did not induce any change”. Moreover, in the assay on mice [3] (shocked group, acute spadin), the “motility (squares crossed plus climbings)” value stood at 78±7 counts. The “reduced escape latencies after training versus saline” value with mice [4] came out at 25.4%. In addition, in the assay with mice [5], the rearing/step numbers ratio entry was “had no effect”. The “BrdU-labelled cells expressing DCX” value in assay [6] (4-day treatment) is 85.2% and 85%. In assay [6] (4-day treatment, spadin i.p. 10^-5 M), the “number of BrdU-positive cells in the SGZ versus saline” value is given as “significantly increased by two-fold”. Moreover, the “number of BrdU-positive cells versus saline” value in assay [6] (15 days) is given as “maintained”.
